Test results from patent US4390547A, “2,2-Dimethyl-3-(substituted ethyl)cyclopropane carboxylate pesticidal compositions and methods” (priority 1981, dated 1983).

Columns and labels:
guppies = test: Fish toxicity test (Test Example 4); format: in vivo; conditions: concentration killing 50% of female guppies during 48 hours, 20° C.; [Mixture] = cis/trans 50/50
Experimental: The mixture was stirred well to prepare a test water. Ten female guppies from 3 to 4 months of age were released into the test water and maintained at 20° C. The concentration of the test compound at which 50% of the guppies were killed during the ensuring 48 hours was determined. [This concentration is referred to as TLm (medium tolerance limit, ppm)].
A rank corresponds to TLm of not less than 10 ppm.
B rank corresponds to TLm of 0.5-10 ppm.
C rank corresponds to TLm of not more than 0.5 ppm.

[1] = test system: housefly (Musca domestica); test: Mortality test against houseflies by topical application (Test Example 1); format: in vivo; conditions: 24 h
Experimental: Each test compound was accurately weighed and a 1% solution and an 0.1% solution of the sample in acetone were prepared. A 1 μl portion of either of the above solutions was micropipetted onto the thoracic dorsal part of each female adult housefly (Musca domestica) under ether anaesthesia and the fly was released in a high-walled dish together with feed. The dish was covered with a metal-wire net and maintained at 25° C. After 24 hours, the test flies were inspected for deaths and the mortality (%) was calculated. Thirty test flies were used per concentration group.

[2] = test system: common cabbage worms (Pieris rapae crucivora); conditions: common cabbage worm, in vivo, 24 h
Experimental: (§1) To 30 parts of each of Compounds (1) to (38) were added 50 parts of xylene and 20 parts of Sorpol SM-200 (a surfactant, trademark of Toho Chemical Co., Ltd.). The mixture was stirred well and dissolved to obtain a 30% emulsifiable concentrate.
The emulsifiable concentrate prepared from Compounds (7), (11) and (15) [Each compound is a mixture of cis- and trans-isomer in a ratio 20/80] in Formulation Example 5 were each diluted 1000-fold with water. Each of 15 common cabbage worms (Pieris rapae crucivora) per group were dipped into each of the dilutions for three seconds. Then, the worms were released on the leaves of the cabbage. After 24 hours, the worms were examined for deaths. The mortality (%) was not less than 90% for each of Compounds (7), (11) and (15).

green rice leafhoppers = test: Mortality of green rice leafhoppers on sprayed rice seedlings (Utility Example 1); conditions: green rice leafhopper, in vivo, 24 h
Experimental: as §1
The emulsifiable concentrate prepared from Compounds (7), (11), (12), (15), (17), (21) and (22) [Each compound is a mixture of cis- and trans-isomer in a ratio of 50/50] in Formulation Example 5 were each diluted 300-fold with water. Then, each of the dilutions was sprayed over rice seedlings 25 days after sowing at the rate of 10 ml/pot. The pot was covered with a wire net and 15 green rice leafhoppers were released under the net. After 24 hours, the leafhoppers were examined for deaths. The mortality (%) was not less than 90% for each of Compounds (7), (11), (12), (15), (17), (21) and (22).

Compound | TLm (medium tolerance limit) (guppies) | mortality at 1 µg/fly [1] | mortality at 10 µg/fly [1] | mortality (%) [2] | mortality (%) (green rice leafhoppers)
C#CC(OC(=O)[C@@H]1[C@@H](CC(Cl)(Cl)Cl)C1(C)C)c1cccc(Oc2ccccc2)c1 (relative stereo) [(11) [Trans-isomer], 3-Phenoxy-α-ethynylbenzyl 2,2-dimethyl-3-(2,2,2-trichloroethyl)cyclopropanecarboxylate] | A (A rank corresponds to TLm of not less than 10 ppm.) | 100% | 100% |  | 
CC1(C)C(CC(Cl)(Cl)Cl)C1C(=O)OC(C#N)c1cccc(Oc2ccccc2)c1 (stereo not drawn) [Compound (7), 3-Phenoxy-α-cyanobenzyl 2,2-dimethyl-3-(2,2,2-trichloroethyl)cyclopropanecarboxylate] |  |  |  | not less than 90% | not less than 90%
CC1(C)C(CC(Cl)(Cl)Cl)C1C(=O)OC(C#N)c1cccc(Oc2ccc(Cl)cc2)c1 (stereo not drawn) [(15), 3-(4-Chlorophenoxy)-α-cyanobenzyl 2,2-dimethyl-3-(2,2,2-trichloroethyl)cyclopropanecarboxylate] |  |  |  | not less than 90% | not less than 90%
C#CC(OC(=O)C1C(CC(Cl)(Cl)Cl)C1(C)C)c1cccc(Oc2ccccc2)c1 (stereo not drawn) [Compound (11), 3-Phenoxy-α-ethynylbenzyl 2,2-dimethyl-3-(2,2,2-trichloroethyl)cyclopropanecarboxylate] |  |  |  | not less than 90% | not less than 90%
